Test results published in ChEMBL document CHEMBL1133401 (Bioorg Med Chem Lett, 2000).
pKi: −log10 of the molar value. ≈ marks a conversion by molar mass, not a printed value.

What was measured:
[1] = The compound was evaluated for the aqueous solubility at pH value of 2.6.; type: physicochemical; conditions: pH 2.6
[2] = target: T1, Adenosine receptor A1 (Cavia porcellus, UniProt P47745); experiment: Ex vivo inhibition of guinea pig ileum twitch via Adenosine A1 receptor.; type: tissue-based
T1 sequence (P47745 whole entry): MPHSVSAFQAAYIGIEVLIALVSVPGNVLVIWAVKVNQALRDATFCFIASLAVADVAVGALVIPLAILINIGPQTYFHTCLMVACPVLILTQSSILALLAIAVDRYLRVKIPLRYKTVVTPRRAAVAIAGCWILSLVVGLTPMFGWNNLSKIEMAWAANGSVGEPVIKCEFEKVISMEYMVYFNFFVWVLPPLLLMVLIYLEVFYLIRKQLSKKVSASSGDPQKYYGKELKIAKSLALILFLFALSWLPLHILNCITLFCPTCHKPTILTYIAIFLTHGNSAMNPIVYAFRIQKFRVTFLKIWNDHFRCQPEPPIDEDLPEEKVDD

[3] = target: T2, Adenosine receptor A2a (Rattus norvegicus, UniProt P30543); experiment: (§1) Agonistic activity against Adenosine A2A receptor on rat striatal membranes
T2 sequence (P30543 whole entry): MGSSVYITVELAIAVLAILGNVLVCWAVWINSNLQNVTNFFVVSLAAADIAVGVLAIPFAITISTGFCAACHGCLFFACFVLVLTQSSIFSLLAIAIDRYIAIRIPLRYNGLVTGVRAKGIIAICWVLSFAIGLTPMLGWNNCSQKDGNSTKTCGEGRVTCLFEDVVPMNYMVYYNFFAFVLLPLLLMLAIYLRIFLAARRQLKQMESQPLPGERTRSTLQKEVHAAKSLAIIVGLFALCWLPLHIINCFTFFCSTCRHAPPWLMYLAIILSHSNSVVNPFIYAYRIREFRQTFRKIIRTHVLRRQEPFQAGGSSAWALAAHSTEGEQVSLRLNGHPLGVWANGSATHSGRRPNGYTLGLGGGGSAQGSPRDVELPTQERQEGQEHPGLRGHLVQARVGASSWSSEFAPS

[4] = target: T2, Adenosine receptor A2a; experiment: as §1; type: functional, Striatum, Membrane

Row | SMILES | ECR [2] | also measured
1 | CCNC(=O)[C@H]1O[C@@H](n2cnc3c(NCC(c4ccccc4)c4ccccc4)nc(NCCc4c[nH]cn4)nc32)[C@H](O)[C@@H]1O | 672 | solubility [1]: ≥ 1820 µg/mL
2 | CCNC(=O)[C@H]1O[C@@H](n2cnc3c(NCC(c4ccccc4)c4ccccc4)nc(N[C@@H]4CCC[C@H]4O)nc32)[C@H](O)[C@@H]1O | 390 | 
3 | OC[C@H]1O[C@@H](n2cnc3c(NCc4cccc5ccccc45)ncnc32)[C@H](O)[C@@H]1O |  | pKi [3]: 8.03
4 | OC[C@H]1O[C@@H](n2cnc3c(NC4CCCC4)nc(Cl)nc32)[C@H](O)[C@@H]1O | 1 | 
5 | CCNC(=O)[C@H]1O[C@@H](n2cnc3c(NCC(c4ccccc4)c4ccccc4)nc(NCCN4CCCCC4)nc32)[C@H](O)[C@@H]1O.O=C(O)C(F)(F)F | 263 | solubility [1]: ≥ 1870 µg/mL
6 | OC[C@H]1O[C@@H](n2cnc3c(NCCc4cccc(Cl)c4)nc(NC4CCCC4)nc32)[C@H](O)[C@@H]1O | > 1000 | 
7 | CCNC(=O)[C@H]1O[C@@H](n2cnc3c(NCC(c4ccccc4)c4ccccc4)nc(NC4CCCC4)nc32)[C@H](O)[C@@H]1O | > 5000 | solubility [1]: 24 µg/mL (≈ 42 µM)
8 | OC[C@H]1O[C@@H](n2cnc3c(NCc4cccc5ccccc45)nc(NC4CCCCC4)nc32)[C@H](O)[C@@H]1O |  | pKi [4]: 4.99
9 | OC[C@H]1O[C@@H](n2cnc3c(NCC(c4ccccc4)c4ccccc4)nc(NC4CCCC4)nc32)[C@H](O)[C@@H]1O | > 612 | 
10 | CCNC(=O)[C@H]1O[C@@H](n2cnc3c(NCC(c4ccccc4)c4ccccc4)nc(N[C@H]4CC[C@H](N)CC4)nc32)[C@H](O)[C@@H]1O.O=C(O)C(F)(F)F | 369 | solubility [1]: 1570 µg/mL

The next lines start with results.

Row | ECR [2] | SMILES | also measured
11 | 2 | OC[C@H]1O[C@@H](n2cnc3c(N[C@@H]4CCC[C@@H]4O)nc(Cl)nc32)[C@H](O)[C@@H]1O | 
12 | 549 | Nc1nc(NC2CCCC2)nc2c1ncn2[C@@H]1O[C@H](CO)[C@@H](O)[C@H]1O | 
13 | 80 | CCNC(=O)[C@H]1O[C@@H](n2cnc3c(N)nc(NC4CCCC4)nc32)[C@H](O)[C@@H]1O | 
14 | 1470 | Nc1nc(N[C@@H]2CCC[C@H]2O)nc2c1ncn2[C@@H]1O[C@H](CO)[C@@H](O)[C@H]1O | 
15 | 260 | CCNC(=O)[C@H]1O[C@@H](n2cnc3c(N)nc(N[C@@H]4CCC[C@H]4O)nc32)[C@H](O)[C@@H]1O | 
16 | 84 | Nc1nc(N[C@H]2CCC[C@@H]2O)nc2c1ncn2[C@@H]1O[C@H](CO)[C@@H](O)[C@H]1O | 
